Test results: BigSolDB 2.1

CC(=O)Oc1ccc(C(c2ccc(OC(C)=O)cc2)c2ccccn2)cc1
solubility (mole fraction)
Settings	288.15 K	293.15 K	298.15 K	303.15 K	308.15 K
in DMAc	0.0391	0.0448	0.0512	0.0583	0.0659
in DMF	0.0372	0.0429	0.0492	0.0561	0.0638
in NMP	0.0643	0.0703	0.0768	0.0837	0.0909
in THF	0.0192	0.0237	0.0291	0.0355	0.0431
in acetone	0.0124	0.0154	0.0189	0.0231	0.0281
in acetonitrile	0.0112	0.0135	0.0162	0.0193	0.0229
in ethanol	0.000471	0.000639	0.000852	0.00113	0.00149
in isopropanol	0.000238	0.000327	0.000443	0.000599	0.000804
in methanol	0.000961	0.00123	0.00155	0.00196	0.00245
in n-butanol	0.000393	0.000537	0.000719	0.000968	0.00128
in n-propanol	0.000462	0.000608	0.000788	0.00102	0.00131
in transcutol	0.00761	0.0092	0.011	0.0131	0.0156
in water	1.32e-07	1.56e-07	1.83e-07	2.14e-07	2.49e-07

Settings	solubility (mole fraction)
in PEG-400, 288.15 K	0.0132
in PEG-400, 293.15 K	0.0154
in PEG-400, 298.15 K	0.0179
in PEG-400, 303.15 K	0.0206
in PEG-400, 308.15 K	0.0237
